# Earlier results, collected in patent US11819508B2 (priority 2020, dated 2023).
# Like-named read-outs stand apart in the source and are kept apart here.
# Tests used:
# [1] = in vivo
# Covid-19 = details: subcutaneous; subjects hospitalized with Covid-19
Molecule,solubility (in aqueous solutions),solubility (in water or saline solutions),"solubility (in water, 0.1 N HCl or NaOH, methanol, and ethanol)",half-life [1],clinical improvement as assessed by NEWS 2 and SOFA score and shortened hospital stay (Covid-19)
"2-[[(hexadecyloxy)hydroxyphosphenyl]oxy]-N,N,N-trimethylethylammonium inner salt [Miltefosine]",freely soluble,readily soluble,freely soluble,long half-life,–
"IFN β-1b: cytokine in the interferon family, subcutaneous (protein, UniProt P01574 22-187, looked up, variant C17S, lacks N-terminal Met1, non-glycosylated, cytokine in the interferon family, subcutaneous) Interferon beta: MSYNLLGFLQRSSNFQSQKLLWQLNGRLEYCLKDRMNFDIPEEIKQLQQFQKEDAALTIYEMLQNIFAIFRQDSSSTGWNETIVENLLANVYHQINHLKTVLEEKLEKEDFTRGKLMSSLHLKRYYGRILHYLKAKEYSHCAWTIVRVEILRNFYFINRLTGYLRN",–,–,–,–,clinical improvement
